Measured values from US20260274832A1, “COMPOUNDS AND THEIR USE IN TREATING CANCER” (ASTRAZENECA AB, priority 2023, published 2026).

How the values were obtained:
[1] = biological target: T1, AR (L702H) in LNCaP cells (Homo sapiens, UniProt P10275, L702H/T878A); assay: LNCaP Androgen Receptor L702H Imaging Assay (LNCaP cells engineered by CRISPR/Cas9); format: cell-based; conditions: LNCaP cells with AR L702H mutation, 24 h incubation; for DC50: concentration giving 50% of maximum degradation of AR (L702H) per curve fit; for Dmax: LNCaP; for Dmax / LNCaP AR (L702H) Degradation Dmax: maximum degradation observed, normalized as % of positive control
T1 construct: engineered to introduce the mutation L702H into the AR gene using CRISPR/Cas9; endogenous in cells; host or cells: LNCaP cells edited by CRISPR/Cas9 at the AR gene
Method: (§1) All work was performed in a sterile tissue culture hood up to the point of cell fixation. LNCaP cells were cultured at 6-8×10^6 per T175 flask and split every 3-4 days. Medium: RPMI (R7638, VWR Sigma) containing 10% FCS and 1% glutamine. Cells were plated in black wall transparent bottom plates at a density of 12,000 cells (Cedex™ Cell counter, Beckmann & Coulter), 40 μL per well, using a Multidrop (ThermoFisher).
(§2) Cells were dosed with test compound diluted in DMSO using an Echo 555/655™ (Labcyte) and the final concentration of DMSO in the well was 0.3%. A neutral control (DMSO) and a positive AR degrader control at 3 μM (a prior art AR PROTAC) were included. The Echo uses acoustic technology to perform direct microplate-to-microplate transfers of DMSO compound solutions to assay plates. The system can be programmed to transfer volumes as low as 2.5 nL in multiple increments between microplates and in so doing generates a serial dilution of compound in the assay plate which is then back-filled to normalise the DMSO concentration across the dilution range. Compounds were dispensed as a 12 point dose response with indicated concentrations. The plates were incubated at 37° C./5% CO2 for 24 h and then fixed and stained as below. 40 μL of 8% paraformaldehyde solution (v/v) in phosphate buffered saline (PBS) was added on top of the media already in the well using a Multidrop to fix plates giving a final concentration of 4% PFA (v/v) for 20-30 minutes (keep in fume hood to minimise PFA exposure). After 20-30 mins, the plates were washed with 3×PBS using a BioTek washer in a fume hood. A shake out of remaining volume in the well was performed to ensure best removal of remaining PBS. At this plates could be stored in PBS after washing for at least 3 days at 4° C., if so, PBS was removed by the BioTek before continuing with the next step.
(§3) The cells were incubated with a Mouse monoclonal Anti-AR antibody AR441 (DAKO M3562) (1:1000), diluted in modified blocking buffer (PBS+1% BSA+0.1% TritonX); 15 μL/well for 2 h at RT. The plates were then washed with 3×PBS using a BioTek washer. A shake out of remaining volume in the well was performed to ensure best removal of remaining PBS. Cells were then incubated with Goat anti-mouse secondary antibody 488 (Invitrogen A11001) (1:500) and nuclear stain, DRAQ5 (Abcam Ab108410) (1:2000) diluted in modified blocking buffer for 45 mins at room temperature 15 μL/well. Plates are then washed with 3×PBS using a BioTek washer, without final aspiration, and sealed with black plate seals. Plates could be stored after staining for three days at 4° C. before read if required.
(§4) Plates are read using a Cellomics Cellinsight to measure the Androgen Receptor level in each well. The data is exported into Genedata to perform curve fitting analysis. All data are normalized as % of positive control and the BellFit method automatically determines the correct fit method based on the presence of hook effect, choosing the BellFit when there is a hook and HillFit when there is no hook. Down-regulation of AR is expressed as a DC50 value and determined by calculation of the concentration of compound that is required to give 50% of maximum degradation of AR as per the curve fit for that compound. The maximum degradation observed for each compound is expressed as Dmax. The AR degradation data for compounds is shown in the table below and may be a result from a single experiment or an average of two or more experiments.
At this stage, anti-androgen therapy is largely ineffective due to AR amplification, overexpression or point mutation. One of the point mutations observed in patient populations is L702H in the AR Ligand Binding Domain. LNCAP cells have been engineered to introduce the mutation L702H into the AR gene using CRISPR/Cas9. The previously described imaging-based AR assay will monitor nuclear AR (L702H) levels in these cells to identify compounds that regulate AR (L702H). […]

[2] = biological target: T2, AR (AR-full length) in LNCaP cells (Homo sapiens, UniProt P10275, T878A); assay: LNCaP Androgen Receptor Imaging Assay (immunofluorescence of endogenous nuclear AR); format: cell-based; conditions: 24 h incubation; for DC50: concentration giving 50% of maximum degradation of AR per curve fit, single experiment or average of two or more; for Dmax: LNCaP; for Dmax / LNCaP AR Degradation Dmax: maximum degradation observed, normalized as % of positive control (prior art AR PROTAC at 3 μM)
T2 construct: the prostate cancer cell line LNCaP (expressing AR-full length); endogenous in cells; host or cells: LNCaP
Method: This cell-based imaging assay uses immuno-fluorescence to measure endogenous nuclear AR staining in the prostate cancer cell line LNCaP (expressing AR-full length). The purpose of the assay is to identify compounds that regulate AR protein level according to the protocol laid out in the steps below.
as §1, §2, §3, §4

T1 sequence (P10275 whole entry L702H/T878A): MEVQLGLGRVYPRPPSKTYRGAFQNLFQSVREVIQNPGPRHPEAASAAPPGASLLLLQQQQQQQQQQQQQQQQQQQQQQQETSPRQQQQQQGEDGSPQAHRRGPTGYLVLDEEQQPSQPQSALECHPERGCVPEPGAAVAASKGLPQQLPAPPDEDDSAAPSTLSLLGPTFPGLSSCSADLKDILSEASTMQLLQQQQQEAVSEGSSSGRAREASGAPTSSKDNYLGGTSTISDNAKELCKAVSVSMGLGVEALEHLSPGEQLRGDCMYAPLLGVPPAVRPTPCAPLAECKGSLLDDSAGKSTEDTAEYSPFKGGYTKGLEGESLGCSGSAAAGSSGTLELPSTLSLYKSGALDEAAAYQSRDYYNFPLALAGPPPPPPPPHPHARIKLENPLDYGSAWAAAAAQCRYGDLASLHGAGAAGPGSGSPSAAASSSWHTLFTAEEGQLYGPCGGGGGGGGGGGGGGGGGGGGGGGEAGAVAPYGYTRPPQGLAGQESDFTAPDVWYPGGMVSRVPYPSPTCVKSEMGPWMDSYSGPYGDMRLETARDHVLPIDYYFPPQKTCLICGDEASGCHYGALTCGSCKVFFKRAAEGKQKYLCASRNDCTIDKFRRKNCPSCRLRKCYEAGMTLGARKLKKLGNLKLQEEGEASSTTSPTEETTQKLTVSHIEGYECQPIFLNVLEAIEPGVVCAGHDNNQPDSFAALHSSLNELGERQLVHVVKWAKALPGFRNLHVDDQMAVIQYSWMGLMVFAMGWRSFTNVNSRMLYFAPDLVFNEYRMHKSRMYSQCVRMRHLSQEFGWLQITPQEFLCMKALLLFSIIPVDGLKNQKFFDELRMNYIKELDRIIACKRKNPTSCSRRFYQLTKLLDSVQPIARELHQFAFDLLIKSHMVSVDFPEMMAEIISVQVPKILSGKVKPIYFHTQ
T1 sequence (Q96SW2 whole entry partner): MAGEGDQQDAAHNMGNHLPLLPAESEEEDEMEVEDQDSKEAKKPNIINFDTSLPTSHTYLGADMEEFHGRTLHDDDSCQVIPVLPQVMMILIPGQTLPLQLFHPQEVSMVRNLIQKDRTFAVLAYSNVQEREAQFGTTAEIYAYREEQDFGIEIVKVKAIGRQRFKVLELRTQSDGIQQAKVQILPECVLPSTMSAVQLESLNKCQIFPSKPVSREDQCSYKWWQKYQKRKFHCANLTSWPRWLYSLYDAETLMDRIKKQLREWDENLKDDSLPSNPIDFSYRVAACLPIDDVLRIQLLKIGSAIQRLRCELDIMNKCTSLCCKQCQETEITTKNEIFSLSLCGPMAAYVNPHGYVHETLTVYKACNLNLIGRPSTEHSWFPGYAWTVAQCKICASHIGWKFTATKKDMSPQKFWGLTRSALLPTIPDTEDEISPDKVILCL
T2 sequence (P10275 whole entry T878A): as the sequence (P10275 whole entry L702H/T878A) above, with H702L counted along it
T2 sequence (Q96SW2 whole entry partner): as the sequence (Q96SW2 whole entry partner) above

Row | Compound | DC50 [1] | Dmax [1] | DC50 [2] | Dmax [2] | LNCaP AR (L702H) Degradation Dmax [1] | LNCaP AR Degradation Dmax [2]
1 | COc1cc(N2CCN(CC3CCN(c4ccc(C5CCN(c6ccc(Cl)c7c(C#N)c[nH]c67)CC5)cc4)CC3)CC2)cc2c1C(=O)N(C1CCC(=O)NC1=O)C2 (single isomer, unassigned) [Example 16, 4-Chloro-7-[4-(4-{4-[(4-{2-[(3R*)-2,6-dioxopiperidin-3-yl]-7-methoxy-1-oxo-2,3-dihydro-1H-isoindol-5-yl}piperazin-1-yl)methyl]piperidin-1-yl}phenyl)piperidin-1-yl]-1H-indole-3-carbonitrile] | 0.024 µM | 84% | 0.012 µM | – | – | 77%
2 | COc1nc(N2CCN(CC3CCN(c4ccc(C5CCN(c6ccc(Cl)c7c(C#N)c[nH]c67)CC5)cc4)CC3)CC2)cc2c1C(=O)N(C1CCC(=O)NC1=O)C2 (single isomer, unassigned) [Example 35, 4-Chloro-7-[4-(4-{4-[(4-{2-[(3R*)-2,6-dioxopiperidin-3-yl]-4-methoxy-3-oxo-2,3-dihydro-1H-pyrrolo[3,4-c]pyridin-6-yl}piperazin-1-yl)methyl]piperidin-1-yl}phenyl)piperidin-1-yl]-1H-indole-3-carbonitrile] | 0.029 µM | 91% | 0.019 µM | 84% | – | –
3 | COc1nc(N2CCN(CC3CCN(c4ccc(C5CCN(c6ccc(Cl)c7c(C#N)c[nH]c67)CC5)cc4)CC3)CC2)cc2c1C(=O)N(C1CCC(=O)NC1=O)C2 (single isomer, unassigned) [Example 36, 4-Chloro-7-[4-(4-{4-[(4-{2-[(3S*)-2,6-dioxopiperidin-3-yl]-4-methoxy-3-oxo-2,3-dihydro-1H-pyrrolo[3,4-c]pyridin-6-yl}piperazin-1-yl)methyl]piperidin-1-yl}phenyl)piperidin-1-yl]-1H-indole-3-carbonitrile] | 0.007 µM | – | 0.005 µM | – | 102% | 102%
4 | COc1nc(N2CCN(CC3CCN(c4ccc([C@@H]5CCCN(c6ccc(Cl)c7c(C#N)c[nH]c67)C5)cc4)CC3)CC2)cc2c1C(=O)N(C1CCC(=O)NC1=O)C2 (single isomer, unassigned) [Example 39, 4-Chloro-7-[(3S)-3-(4-{4-[(4-{2-[(3R*)-2,6-dioxopiperidin-3-yl]-4-methoxy-3-oxo-2,3-dihydro-1H-pyrrolo[3,4-c]pyridin-6-yl}piperazin-1-yl)methyl]piperidin-1-yl}phenyl)piperidin-1-yl]-1H-indole-3-carbonitrile] | 0.033 µM | 99% | 0.016 µM | 88% | – | –
5 | N#Cc1c[nH]c2c(C3CCCN(c4ccc(N5CCC(CN6CCN(c7ccc8c(c7)CN(C7CCC(=O)NC7=O)C8=O)CC6)CC5)cc4)C3)ccc(Cl)c12 (single isomer, unassigned) [Example 94, 4-Chloro-7-[(3S*)-1-{4-[4-({4-[2-(2,6-dioxopiperidin-3-yl)-1-oxo-2,3-dihydro-1H-isoindol-5-yl]piperazin-1-yl}methyl)piperidin-1-yl]phenyl}piperidin-3-yl]-1H-indole-3-carbonitrile] | – | – | > 3 µM | – | – | –

The next lines start with the values.

Row | DC50 [1] | Dmax [1] | DC50 [2] | Dmax [2] | LNCaP AR (L702H) Degradation Dmax [1] | LNCaP AR Degradation Dmax [2] | Compound
6 | 0.017 µM | 99% | 0.018 µM | 85% | – | – | N#Cc1c[nH]c2c(N3CCC(c4ccc(N5CCC(CN6CCN(c7ccc8c(c7)CN(C7CCC(=O)NC7=O)C8=O)CC6)CC5)cc4)CC3)ccc(F)c12 (single isomer, unassigned) [Example 3, 7-(4-{4-[4-({4-[2-(2,6-Dioxopiperidin-3-yl)-1-oxo-2,3-dihydro-1H-isoindol-5-yl]piperazin-1-yl}methyl)piperidin-1-yl]phenyl}piperidin-1-yl)-4-fluoro-1H-indole-3-carbonitrile]
7 | 0.005 µM | – | 0.006 µM | – | 106% | 96% | N#Cc1c[nH]c2c(N3CCC(c4ccc(N5CCC(CN6CCN(c7ccc8c(c7)CN(C7CCC(=O)NC7=O)C8=O)CC6)CC5)cc4)CC3)ccc(F)c12 (single isomer, unassigned) [Example 4, 7-(4-{4-[4-({4-[2-(2,6-Dioxopiperidin-3-yl)-1-oxo-2,3-dihydro-1H-isoindol-5-yl]piperazin-1-yl}methyl)piperidin-1-yl]phenyl}piperidin-1-yl)-4-fluoro-1H-indole-3-carbonitrile]
8 | 0.004 µM | – | 0.003 µM | – | 102% | 100% | COc1cc(N2CCN(CC3CCN(c4ccc(C5CCN(c6ccc(Cl)c7c(C#N)c[nH]c67)CC5)cc4)CC3)CC2)cc2c1C(=O)N(C1CCC(=O)NC1=O)C2 (single isomer, unassigned) [Example 17, 4-Chloro-7-[4-(4-{4-[(4-{2-[(3S*)-2,6-dioxopiperidin-3-yl]-7-methoxy-1-oxo-2,3-dihydro-1H-isoindol-5-yl}piperazin-1-yl)methyl]piperidin-1-yl}phenyl)piperidin-1-yl]-1H-indole-3-carbonitrile]
9 | 0.018 µM | 96% | 0.014 µM | 93% | – | – | N#Cc1c[nH]c2c(N3CCC(c4ccc(N5CCC(CN6CCN(c7ccc8c(c7)CN(C7CCC(=O)NC7=O)C8=O)CC6)CC5)cc4)CC3)ccc(Cl)c12 (single isomer, unassigned) [Example 18, 4-Chloro-7-[4-(4-{4-[(4-{2-[(3R*)-2,6-dioxopiperidin-3-yl]-1-oxo-2,3-dihydro-1H-isoindol-5-yl}piperazin-1-yl)methyl]piperidin-1-yl}phenyl)piperidin-1-yl]-1H-indole-3-carbonitrile]
10 | 0.005 µM | – | 0.004 µM | – | 102% | 102% | N#Cc1c[nH]c2c(N3CCC(c4ccc(N5CCC(CN6CCN(c7ccc8c(c7)CN(C7CCC(=O)NC7=O)C8=O)CC6)CC5)cc4)CC3)ccc(Cl)c12 (single isomer, unassigned) [Example 19, 4-Chloro-7-[4-(4-{4-[(4-{2-[(3S*)-2,6-dioxopiperidin-3-yl]-1-oxo-2,3-dihydro-1H-isoindol-5-yl}piperazin-1-yl)methyl]piperidin-1-yl}phenyl)piperidin-1-yl]-1H-indole-3-carbonitrile]
